In PubChem BioAssay (NCI) one finds TGI data, which are given here for 7 compounds.

Test systems include HL-60(TB) leukemia; UACC-257 melanoma; SK-OV-3 ovarian; SNB-75 CNS; SR leukemia; MALME-3M melanoma; MDA-MB-435; IGROV1 ovarian; MDA-N; NCI-H522 lung; SK-MEL-28 melanoma; ACHN renal; A498 renal; HT29 colon; OVCAR-8 ovarian; HOP-92 NSCLC; TK-10 renal; UACC-62 melanoma; OVCAR-4 ovarian.
Common to all, as to assay: NCI anticancer screen, dose series, 48 h

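Following 48 hours of exposure in 96-well plates, responses at five concentrations were used to interpolate endpoints linearly. TGI is the concentration that stops growth completely.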

As to `O=C(Nc1ccc(Cl)cc1)c1cc(S(=O)(=O)NC2=NC(c3ccccc3)c3cc(Cl)ccc3N2)c(SSc2cc(Cl)c(C(=O)Nc3ccc(Cl)cc3)cc2S(=O)(=O)NC2=NC(c3ccccc3)c3cc(Cl)ccc3N2)cc1Cl` (configuration not stated), the TGI in the experiment with HL-60(TB) leukemia is over 42.6 µM; in the experiment on UACC-257 melanoma, over 100 µM; with SK-OV-3 ovarian, over 100 µM; in the experiment on SNB-75 CNS, over 100 µM; with SR leukemia it was 58.5 µM; with MALME-3M melanoma it was over 100 µM. Besides, the TGI with MDA-MB-435, in the experiment with IGROV1 ovarian, in the experiment with MDA-N, in the experiment with NCI-H522 lung, in the experiment on SK-MEL-28 melanoma and in the experiment on ACHN renal was over 100 µM each time. For the same compound, the TGI in the experiment with A498 renal, in the experiment on HT29 colon, in the experiment with OVCAR-8 ovarian, in the experiment on HOP-92 NSCLC, in the experiment with TK-10 renal and in the experiment on UACC-62 melanoma was over 100 µM each time. Besides, the TGI in the experiment with OVCAR-4 ovarian is over 100 µM.

As for `COc1cc(C(=O)OC2CC(C)=CC[C@@]3(C)CC[C@](O)(C(C)C)C23)ccc1O` (some centres not stated), the TGI was over 100 µM in the experiment on HL-60(TB) leukemia; 29.6 µM with UACC-257 melanoma; 29.1 µM in the experiment with SK-OV-3 ovarian; 33.5 µM in the experiment on SNB-75 CNS; 84.1 µM with SR leukemia; 34.3 µM with MALME-3M melanoma. Besides, the TGI in the experiment with MDA-MB-435 was over 100 µM; in the experiment on IGROV1 ovarian, 33.4 µM; in the experiment with MDA-N, 35.2 µM; in the experiment with NCI-H522 lung, 28 µM; in the experiment with SK-MEL-28 melanoma, 60.2 µM; in the experiment with ACHN renal, 32.6 µM. Moreover, the TGI stood at 33.7 µM in the experiment with A498 renal; 29.8 µM in the experiment with HT29 colon; 36.6 µM with OVCAR-8 ovarian; 30.5 µM in the experiment with HOP-92 NSCLC; 30.1 µM with TK-10 renal; 30 µM in the experiment on OVCAR-4 ovarian.

Turning to `COC(=O)C1=C2Nc3ccccc3C23CCN2C(O)C4(CC5CC67CCOC6CCN6CCC8(c9cccc(OC)c9N(C4)C58O)C67)C4OCCC4(C1)C23` (configuration not stated), the TGI is over 100 µM in the experiment with HL-60(TB) leukemia; over 100 µM in the experiment with UACC-257 melanoma; over 100 µM in the experiment with SK-OV-3 ovarian; 68.3 µM in the experiment with SNB-75 CNS; over 100 µM with SR leukemia; over 100 µM in the experiment on MALME-3M melanoma. Also, the TGI with MDA-MB-435, in the experiment on IGROV1 ovarian, with MDA-N, in the experiment on NCI-H522 lung, in the experiment on SK-MEL-28 melanoma and in the experiment with ACHN renal was over 100 µM throughout. Moreover, the TGI in the experiment with A498 renal was over 100 µM; in the experiment with HT29 colon, over 100 µM; in the experiment on OVCAR-8 ovarian it was 61.3 µM; in the experiment with HOP-92 NSCLC, 87.7 µM; in the experiment on TK-10 renal, over 100 µM; with UACC-62 melanoma, over 100 µM. For the same compound, the TGI in the experiment on OVCAR-4 ovarian was over 100 µM.

For `CN1CCN(c2ccc3nc(-c4ccc5nc(-c6ccc(N(C)CCCl)cc6)[nH]c5c4)[nH]c3c2)CC1`, the TGI with HL-60(TB) leukemia is over 100 µM; with UACC-257 melanoma, 3.34 µM; in the experiment with SK-OV-3 ovarian it was 1.2 µM; in the experiment on SNB-75 CNS, 0.897 µM; in the experiment with SR leukemia, 12.5 µM; in the experiment with MALME-3M melanoma it was 0.41 µM. Besides, the TGI in the experiment with MDA-MB-435 stood at 0.281 µM; in the experiment with IGROV1 ovarian, 0.391 µM; in the experiment with MDA-N, 0.511 µM; in the experiment with NCI-H522 lung, 0.0365 µM; in the experiment with SK-MEL-28 melanoma, 1.13 µM; with ACHN renal, 5.97 µM. In addition, the TGI turned out to be 6.74 µM in the experiment on A498 renal; 0.675 µM in the experiment with HT29 colon; 1.53 µM in the experiment on OVCAR-8 ovarian; 0.989 µM in the experiment on HOP-92 NSCLC; 9.77 µM with TK-10 renal; 1.05 µM with UACC-62 melanoma. Moreover, the TGI with OVCAR-4 ovarian came out at 1.04 µM.

Take `COC(=O)C1(Cc2ccc3c(c2)CCC3)Cc2cc3c(cc2C1=O)CCC3` (configuration not stated): the TGI in the experiment on HL-60(TB) leukemia is 17.9 µM; in the experiment on UACC-257 melanoma, over 46.4 µM; in the experiment on SK-OV-3 ovarian, over 46.4 µM; in the experiment with SNB-75 CNS, over 46.4 µM; in the experiment on SR leukemia, 33 µM; in the experiment on MALME-3M melanoma it was over 46.4 µM. Further, the TGI with MDA-MB-435 was 43 µM; in the experiment on IGROV1 ovarian, over 46.4 µM; in the experiment with MDA-N it was over 46.4 µM; with NCI-H522 lung, over 31.6 µM; in the experiment with SK-MEL-28 melanoma it was over 46.4 µM; in the experiment on ACHN renal, over 46.4 µM. Moreover, the TGI with A498 renal was over 31.6 µM; in the experiment on HT29 colon, over 46.4 µM; in the experiment with OVCAR-8 ovarian, over 46.4 µM; in the experiment with HOP-92 NSCLC it was 42.9 µM; with TK-10 renal, over 46.4 µM; in the experiment with UACC-62 melanoma, over 46.4 µM. Further, the TGI in the experiment on OVCAR-4 ovarian is over 46.4 µM.

Consider `CCOC(=O)/C(=C\NC#N)c1nc2ccccc2[nH]1`, for which the TGI in the experiment on HL-60(TB) leukemia, with UACC-257 melanoma, in the experiment on SK-OV-3 ovarian, with SNB-75 CNS, with SR leukemia and in the experiment on MALME-3M melanoma was over 100 µM each time. Besides, the TGI in the experiment with MDA-MB-435, with IGROV1 ovarian, in the experiment on MDA-N, in the experiment with NCI-H522 lung, in the experiment on SK-MEL-28 melanoma and in the experiment with ACHN renal was over 100 µM in each case. Further, the TGI in the experiment with A498 renal, in the experiment with HT29 colon, in the experiment with OVCAR-8 ovarian, in the experiment on HOP-92 NSCLC, in the experiment with TK-10 renal and in the experiment with UACC-62 melanoma was over 100 µM each time. Moreover, the TGI in the experiment on OVCAR-4 ovarian is over 100 µM.

As to `CC1=NN(c2cccc(Cl)c2)C2(C1)SCC(=O)N2c1nc2ccccc2s1` (configuration not stated), the TGI in the experiment with HL-60(TB) leukemia was 43.1 µM; in the experiment on UACC-257 melanoma, 57.7 µM; in the experiment on SK-OV-3 ovarian, 85.3 µM; in the experiment with SNB-75 CNS it was 43.5 µM; with SR leukemia, 37.8 µM; with MALME-3M melanoma, over 100 µM. Besides, the TGI is 79.7 µM in the experiment with MDA-MB-435; over 100 µM in the experiment with IGROV1 ovarian; over 100 µM in the experiment on MDA-N; 75.5 µM with NCI-H522 lung; over 100 µM with SK-MEL-28 melanoma; 79.9 µM with ACHN renal. Moreover, the TGI with A498 renal was 89.8 µM; with HT29 colon it was 63.8 µM; in the experiment on OVCAR-8 ovarian, over 100 µM; in the experiment on HOP-92 NSCLC, over 100 µM; in the experiment with TK-10 renal, 74.1 µM; with UACC-62 melanoma, over 100 µM. In addition, the TGI with OVCAR-4 ovarian is over 100 µM.
